Laboratory results as given in patent US4616003A, “N^6 -dihydroxypropyladenosines” (Warner-Lambert Company, priority 1985, dated 1986).
pIC50: −log10 of the molar value. Where two headings read alike, the source gives them in different places.

What was measured:
adenosine A1 receptor = target: T1, adenosine A1 receptor (Rattus norvegicus, UniProt P25099); experiment: Adenosine A1 receptor binding (RBA-1), displacement of [3H]-CHA
T1 construct: Whole brain minus cerebellum and brainstem from male Long Evans rats (150-200 g) was homogenized; from tissue; host or cells: rat whole brain minus cerebellum and brainstem, male Long Evans
T1 sequence (P25099 1-326): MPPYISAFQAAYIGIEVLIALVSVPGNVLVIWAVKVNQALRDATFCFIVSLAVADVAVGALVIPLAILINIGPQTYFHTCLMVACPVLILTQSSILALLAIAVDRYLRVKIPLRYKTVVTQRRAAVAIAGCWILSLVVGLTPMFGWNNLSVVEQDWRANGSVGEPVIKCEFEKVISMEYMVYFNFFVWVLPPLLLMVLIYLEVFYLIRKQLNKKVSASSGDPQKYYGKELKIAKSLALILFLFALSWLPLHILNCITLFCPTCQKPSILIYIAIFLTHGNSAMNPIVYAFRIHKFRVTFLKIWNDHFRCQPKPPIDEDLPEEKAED
Procedure: Whole brain minus cerebellum and brainstem from male Long Evans rats (150-200 g) was homogenized in 30 volumes of ice-cold 0.05M Tris-HCl buffer pH 7.7 using a Brinkman Polytron PT-10, (setting number 6 for 20 seconds) and centrifuged for ten minutes at 20,000×g (Sorvall RC-2), 4° C. The supernatant was discarded, and the pellet was resuspended and centrifuged as before. The pellet was resuspended in 20 ml Tris-HCl buffer containing two International Units/ml of adenosine deaminase (Sigma type III from calf intestinal mucosa), incubated at 37° C. for 30 minutes, then subsequently at 0° C. for ten minutes. The homogenate was again centrifuged, and the final pellet was resuspended in ice-cold 0.05M Tris-HCl buffer pH 7.7 to a concentration of 20 mg/ml original wet tissue weight and used immediately.
Tissue homogenate (10 mg/ml) was incubated in 0.05M Tris-HCl buffer pH 7.7 containing 1.0 nM [^3 H]-N^6 -cyclohexyladenosine [^3 H]-CHA) with or without test agents in triplicate for one hour at 25° C. Incubation volume was 2 ml. Unbound [^3 H]-CHA was separated by rapid filtration under reduced pressure through Whatman glass fiber (GF/B) filters. The filters were rinsed three times with 5 ml of ice cold 0.05M Tris-HCl buffer pH 7.7. The radio-labeled ligand retained on the filter was measured by liquid scintillation spectrophotometry after shaking the filters for one hour or longer on a mechanical shaker in 10 ml of Beckman Ready-Solv HP scintillation cocktail.
Nonspecific binding was defined as the binding which occurred in the presence of 1 mM theophylline. […] The Scatchard plot was calculated by linear regression of the line obtained by plotting the amount of radioligand bound (pmoles/gram of tissue) versus [formula] Since the amount of radioligand bound was a small fraction of the total amount added, free radioligand was defined as the concentration (nM) of radioligand added to the incubation mixture. The Hill coefficient was calculated by linear regression of the line obtained by plotting the log of the bound radioligand vs the log of the [formula] The maximal number of binding sites (Bmax) was calculated from the Scatchard plot.

adenosine A2 receptor = target: T2, adenosine A2 receptor (Rattus norvegicus, UniProt P30543); experiment: Adenosine A2 receptor binding (RBA-2), displacement of [3H]NECA
T2 construct: Brains were thawed and then kept on ice while the striata were dissected out; tissue Pel-Freez (Rogers, Ark.); host or cells: rat striatum (Sprague-Dawley brains; Long-Evans gave essentially identical results)
Procedure: Brains from 200-500 g mixed sex Sprague-Dawley rats were purchased from Pel-Freez (Rogers, Ark.). […] Brains were thawed and then kept on ice while the striata were dissected out. […] The suspension was centrifuged at 50,000 xg for ten minutes, the supernatant discarded, the pellet resuspended in 10 vol ice-cold Tris as above, recentrifuged, resuspended at 1 g/5 ml, and stored in plastic vials at -70° C. […] When needed, tissue was thawed at room temperature, disrupted in a Polytron, and kept on ice until used.
All incubations were for 60 minutes at 25° C. in 12×75 mm glass tubes containing 1 ml Tris with 5 mg original tissue weight of rat weight of rat striatal membranes, 4 nM [^3 H]-N-ethyl adenosine-5'-carboxamide ([^3 H]NECA), 50 nM N^6 -cyclopentyladenosine (to eliminate A1 receptor binding), 10 mM MgCl2, 0.1 units/ml of adenosine deaminase and 1% dimethylsulfoxide. N^6 -Cyclopentyladenosine was dissolved at 10 mM in 0.02N HCl and diluted in Tris. […] Test compounds were dissolved at 10 mM in dimethylsulfoxide on the same day as the experiment, and diluted in dimethylsulfoxide to 100× the final incubation concentration. […] [^3 H]NECA was diluted to 40 nM in Tris. The membrane suspension (5 mg/0.79 ml) contained sufficient MgCl2 and adenosine deaminase to give 10 mM and 0.1 units/ml, respectively, final concentration in the incubation. […] After all additions, the rack of tubes was vortexed, and the tubes were then incubated for 60 min at 25° C. in a shaking water bath. The rack of tubes was vortexed an additional time halfway through the incubation.
Incubations were terminated by filtration through 2.4 cm GF/B filters under reduced pressure. Each tube was filtered as follows: the contents of the tube were poured onto the filter, 4 ml of ice-cold Tris were added to the tube and the contents poured onto the filter, and the filter was washed twice with 4 ml of ice-cold Tris. The filtration was complete in about twelve seconds.
Nonspecific binding was defined as binding in the presence of 100 μM N^6 -cyclopentyladenosine, and specific binding was defined as total binding minus nonspecific binding. The IC50 was calculated by weighted nonlinear least squares curve-fitting to the mass-action equation. [formula] where Y is cpm bound
T is cpm total binding without drug
S is cpm specific binding without drug
D is the concentration of drug and
K is the IC50 of the drug
Weighting factors were calculated under the assumption that the standard deviation was proportional to the predicted value of Y. Nonspecific binding was treated as a very large (infinite) concentration of drug in the computer analysis.

Swiss-Webster male mice [1] = experiment: Mouse Activity and Screen Test (MAST): inhibition of spontaneous locomotor activity; assay type: in vivo; settings: 1 hour prior to testing
Procedure: Nine unfasted Swiss-Webster male mice weighing 20-30 g are equally divided into three groups for each drug dose to be tested. That is, data for each dose level was generated by three separate groups of three mice each. A minimum of three dose levels (10, 30, and 100 mg/kg) are tested for each drug. Treatments are administered intraperitoneally one hour prior to testing. All dosages are calculated as parent compound and given in volumes of 10 ml/kg. Compounds are dissolved or suspended in 0.2% Methocel. Control animals are injected with Methocel. Immediately following the screen test, the final phase of testing is initiated by placing each group of three mice in one actophotometer (Life Sciences, 22, 1067-1076, 1978). The actophotometer consists of a cylindrical chamber whose center is occupied by another cylinder which contains the illumination for six photocells located on the perimeter of the chamber. Six light-beam interruptions equal one count. Locomotor activity is recorded by computer at ten minute intervals for 60 minutes. Data: The data obtained from the screen test are expressed as percent of mice falling off the screen. Data derived from locomotor activity of drug treated mice are compared to the activity of vehicle treated animals and are expressed as percent inhibition of spontaneous locomotion. All percentages reported for inhibition of locomotion (LI) are based upon data accumulated for one hour. Both phases of testing are graded: A=60-100%; C=31-59%; and N=0-30%. An overall dose rating is obtained by the following criteria: […]

Swiss-Webster male mice [2] = experiment: Mouse Activity and Screen Test (MAST): screen test failure; assay type: in vivo; settings: 1 hour prior to testing
Procedure: Nine unfasted Swiss-Webster male mice weighing 20-30 g are equally divided into three groups for each drug dose to be tested. That is, data for each dose level was generated by three separate groups of three mice each. A minimum of three dose levels (10, 30, and 100 mg/kg) are tested for each drug. Treatments are administered intraperitoneally one hour prior to testing. All dosages are calculated as parent compound and given in volumes of 10 ml/kg. Compounds are dissolved or suspended in 0.2% Methocel. Control animals are injected with Methocel. Testing: A two part testing procedure is started one hour postinjection. First, the screen test (ST) is performed (see Pharmac. Biochem. Behav. 6, 351-353, 1977). Briefly this test consists of placing mice on individual wire screens which are then rotated 180 degrees at the start of a 60 second observation period. The number of mice falling off the inverted screen is recorded. Data: The data obtained from the screen test are expressed as percent of mice falling off the screen. Data derived from locomotor activity of drug treated mice are compared to the activity of vehicle treated animals and are expressed as percent inhibition of spontaneous locomotion. All percentages reported for inhibition of locomotion (LI) are based upon data accumulated for one hour. Both phases of testing are graded: A=60-100%; C=31-59%; and N=0-30%. An overall dose rating is obtained by the following criteria: […]

[3] = 1.0 nM [3H]-CHA, rat whole brain minus cerebellum and brainstem, read-out: RBA-1 (IC50, adenosine A1 receptor affinity)

T2 sequence (P30543 whole entry): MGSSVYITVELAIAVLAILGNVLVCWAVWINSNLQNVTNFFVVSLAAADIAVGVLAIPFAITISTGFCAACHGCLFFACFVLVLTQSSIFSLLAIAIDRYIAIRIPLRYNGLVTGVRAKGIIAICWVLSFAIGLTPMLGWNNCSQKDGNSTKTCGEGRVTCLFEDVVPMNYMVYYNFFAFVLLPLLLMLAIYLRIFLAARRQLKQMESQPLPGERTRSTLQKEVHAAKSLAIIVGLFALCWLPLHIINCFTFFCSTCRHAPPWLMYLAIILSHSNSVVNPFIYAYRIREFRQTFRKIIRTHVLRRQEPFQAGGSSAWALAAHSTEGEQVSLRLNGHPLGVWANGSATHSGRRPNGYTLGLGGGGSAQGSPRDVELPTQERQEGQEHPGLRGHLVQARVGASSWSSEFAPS

SMILES	pIC50 (adenosine A1 receptor; [3])	inhibition at 100 µM (adenosine A2 receptor; at 1 × 10^-4 M, read-out: RBA-2 Inhib) [%]	Inhibition of Mouse Locomotor Activity (Swiss-Webster male mice [1]; 3.0 mg/kg i.p.) [%]	Inhibition of Mouse Locomotor Activity (Swiss-Webster male mice [1]; 10 mg/kg i.p.) [%]	Inhibition of Mouse Locomotor Activity (Swiss-Webster male mice [1]; 30 mg/kg i.p.) [%]	Screen Test Failure (Swiss-Webster male mice [2]; 3.0 mg/kg i.p.) [%]	Screen Test Failure (Swiss-Webster male mice [2]; 10 mg/kg i.p.) [%]	Screen Test Failure (Swiss-Webster male mice [2]; 30 mg/kg i.p.) [%]	pIC50 (adenosine A1 receptor)	pIC50 (adenosine A2 receptor)	Inhibition of Mouse Locomotor Activity (Swiss-Webster male mice [1]; 100 mg/kg i.p.) [%]	Screen Test Failure (Swiss-Webster male mice [2]; 100 mg/kg i.p.) [%]	pIC50 (adenosine A2 receptor; 4 nM [3H]NECA, 50 nM N6-cyclopentyladenosine, rat striatal membranes, read-out: RBA-2 (IC50, adenosine A2 receptor affinity))
C[C@H]1O[C@@H](n2cnc3c(NCC4COC(C)(C)O4)ncnc32)[C@H](O)[C@@H]1O (stereo partly drawn) [Example 7, (R,S)-N^6-[2,3-Dihydroxypropyl-isopropylidine]-5'-deoxyadenosine]	5.06	23	13	18	69	11	0	0	–	–	–	–	–
CC(C)CC(=O)OCC(CNc1ncnc2c1ncn2[C@@H]1O[C@H](COC(=O)CC(C)C)[C@@H](OC(=O)CC(C)C)[C@H]1OC(=O)CC(C)C)OC(=O)CC(C)C (stereo partly drawn) [Example 11, N-6[2,3-Dihydroxypropyl-2,3-di-O-isovaleroyl]-2',3',5'-tri-O-isovaleroyl adenosine]	–	–	59	91	79	22	55	100	–	–	–	–	–
OC[C@H](O)CNc1ncnc2c1ncn2[C@@H]1O[C@H](CO)[C@@H](O)[C@H]1O [Example 2, (R)-N^6-[2,3-Dihydroxypropyl]adenosine]	–	–	–	100	100	–	100	100	8.11	4.96	100	100	–
CC1(C)OC[C@H](CNc2ncnc3c2ncn3[C@@H]2O[C@H](CO)[C@@H](O)[C@H]2O)O1 [Example 6, (S)-N^6-[2,3-Dihydroxypropylisopropylidene]adenosine]	6.03	–	26	47	71	0	0	0	–	–	–	–	4.70
